Key:
porcine liver esterase = test: Esterase treatment with UPLC-HRMS analysis; format: in vitro ADME
Method: Esters 13b and 15b were subjected to esterase treatment (porcine liver esterase) at 37 °C and pH 7.4 for 2 h, and then the reaction mixtures were analyzed using UPLC-HRMS (Figure 4).[24] The molecular mass of the new products formed was determined by MS and confirmed that they were the expected carboxylic acids. […] The second hydrolysis is presumably slower because the substrate 17 is anionic, whereas for the first hydrolysis, the substrate 13b is neutral.[19],[25],[26] When 13b enters a cell through passive diffusion, the intracellular esterases will begin to hydrolyze the ester groups to give first 17 and then 14b. Since both 17 and 14b are negatively charged under physiological conditions, they will be unable to diffuse back out of the cell and so should accumulate there.[27] Diester 13b is more hydrophobic than triazole hydroxamate 4 (c Log D: 0.8 vs −0.5) and so should diffuse into cells more readily. […] Thus, we anticipate that 13b will be as useful as 4 in probing the role of vitamin B1 in cells.
Figure 4 UPLC-HRMS analysis of the esterase treatment. […] Compound (retention time/min): diester 13b (1.30), dicarboxylate 14b (0.51), monoester 15b (0.99), monocarboxylate 16b (0.51), and intermediate 17 (0.67).

TPP-dependent enzymes = test: Inhibition / relative affinity across the TPP-dependent enzymes (PDH E1, PDC, PO, OGDH E1); format: biochemical; conditions: comparison of relative affinities
Source text: The different biochemical reactions catalyzed, preferred substrates (Table S1), and primary sequences reflect the structurally and functionally diverse members of the family. […] However, as the inhibitors are TPP-competitive, what really matters is the affinity of each inhibitor relative to the affinity of TPP for that particular enzyme.

SMILES	outcome of esterase treatment (porcine liver esterase; 37 °C, pH 7.4, 2 h)	outcome of esterase treatment (porcine liver esterase; after 24 h)	affinities, fold lower than those of 14b (TPP-dependent enzymes)
COC(=O)C(CCCc1cn(Cc2cnc(C)nc2N)nn1)C(=O)OC [13b]	the major product was monoester monocarboxylate 17	the only product seen was dicarboxylate 14b	approximately 3 fold
COC(=O)CCCCc1cn(Cc2cnc(C)nc2N)nn1 [15b]	completely hydrolyzed into monocarboxylate 16b		
Cc1ncc(Cn2cc(CCCCC(=O)[O-])nn2)c(N)n1.[K+] [16b]			approximately 3 fold
